Tests used:
Format in all cases: cell-based
[1] = target: T1, recombinant human ρ1 GABAC receptors (Homo sapiens, UniProt P24046); experiment: GABA concentration–response curves in the presence and absence of ginkgolides, two-electrode voltage clamp in Xenopus oocytes; conditions: for type of antagonism: from GABA concentration–response and inhibition curves
T1 construct: expressed in transfected cells; host or cells: Xenopus laevis oocytes (cRNA injection)
Protocol: (§1) Human ρ1 GABAC receptor subunit cDNA was linearized using the restriction enzyme Xba 1 and transcribed using the “mMESSAGE mMACHINE” kit (Ambion Inc., Austin, TX, USA). RNA (10 ng/50 nl) was injected into the cytoplasm of defollicated oocytes using a 15–20 μm diameter tip glass micropipette Nanoject injector (Drummond Scientific Co., Broomali, PA, USA). The oocytes were incubated for 2–7 days at 18 °C in ND96 buffer with a twice-daily change of buffer.
(§2) Whole-cell currents from homomeric ρ1 GABAC receptors expressed in oocytes were recorded using two-electrode voltage clamp. Recording microelectrodes were fabricated with a micropipette puller (Narishige Scientific Instrument Lab, Tokyo, Japan) and filled with 3 M KCl solution. Oocytes were clamped at −60 mV and continuously superfused with ND96 buffer. […] […]. Co-applications of ginkgolides were interleaved with test applications of GABA alone to monitor the response throughout the experiment. […] A washout period of 3–5 min was allowed between each application.
(§3) Analysis and curve fitting was performed using GraphPad Prism v3.02 (GraphPad Software, San Diego, California, USA). […] […]. […] Unless otherwise noted, parameters were calculated from individual oocytes and then averaged.

[2] = target: T1, recombinant human ρ1 GABAC receptors; experiment: Inhibition curves: ginkgolides co-applied with a fixed GABA concentration, two-electrode voltage clamp in Xenopus oocytes
Protocol: as §1, §2, §3

[3] = target: T1, recombinant human ρ1 GABAC receptors; experiment: Use-dependence: repeated co-applications with GABA during extended incubation of ginkgolide; conditions: for use-dependence: repeated co-applications
Protocol: as §2
Fig. 5 Use-dependent effect in the antagonism of ρ1 GABAC receptors by ginkgolides. A. Examples of currents recorded during repeated co-applications of GABA and ginkgolides. […] Each application was separated by a 3-min interval. […]. […] Overall, there was no obvious evidence for use-dependent inhibition by the ginkgolides.

[4] = target: T1, recombinant human ρ1 GABAC receptors; experiment: Inhibition and recovery time when ginkgolide is co-applied during the plateau of the GABA-activated current
Protocol: as §2
The recovery time from inhibition (measured as the 10–90% rise interval) was determined from the current responses obtained when ginkgolides A, B and C were co-applied during the plateau of the GABA-activated current (Fig. 6). […].
Fig. 6 Recovery time from ginkgolide inhibition.

[5] = target: T1, recombinant human ρ1 GABAC receptors; experiment: Fit of kinetic schemes 1-4 to equilibrium GABA concentration–response curves
Excerpt: The concentration–response curves were fitted with the different mechanisms of inhibition using a least squares non-linear regression in GraphPad Prism.
The mechanism used (Fig. 7, Scheme 1) is that of [Amin and Weiss (1996)], where there are five equivalent agonist binding sites and three sites need to be occupied to activate the receptor, leading to a single open state. […] This assumes five equivalent agonist binding sites but only three are required to be occupied to activate (open) the channel pore. All subsequent kinetic schemes are derivatives of the linear scheme, by incorporating different possible mechanisms for antagonism by ginkgolides. These are drawn from the cyclic mixed-antagonism mechanism described by [Smart and Constanti (1986)]. Scheme 2 and scheme 3 both assume that ginkgolide binds to a single site in the receptor complex. […] For scheme 4, the equilibrium between the fully-liganded closed and open states is removed, which allows for the possibility that the ginkgolide binds to a separate site in the closed state compared to the open state.
Initially, a cyclic allosteric mechanism (Fig. 7, scheme 2) similar to that of [Smart and Constanti (1986)] was fit to the data. This scheme assumes a single binding site on the receptor complex that has an allosteric effect on all rate constants in the reaction mechanism. The scheme was fitted to the data allowing the agonist equilibrium constant, Ka, to be related to the equilibrium constant in the presence of ginkgolide, Ka′ by a constant ratio, R = Ka/Ka′. Similarly, the opening equilibrium constants E and E′ were related by the ratio, S = E/E′. […] As a test of the mechanism, the parameters obtained from the fit were used to predict the inhibition curves (Fig. 8D–F).
This effectively means that ginkgolide is binding at two separate sites. […] Scheme 4 is therefore functionally similar to scheme 2 with E′ having a value close to zero.

[6] = Hill coefficient of GABA curve with 10 μM antagonist
[7] = Hill coefficient of GABA curve with 30 μM antagonist
[8] = Hill coefficient of GABA curve with 100 μM antagonist
[9] = in the presence of 10 μM ginkgolide
[10] = in the presence of 30 μM ginkgolide
[11] = in the presence of 100 μM ginkgolide

T1 sequence (P24046 22-479): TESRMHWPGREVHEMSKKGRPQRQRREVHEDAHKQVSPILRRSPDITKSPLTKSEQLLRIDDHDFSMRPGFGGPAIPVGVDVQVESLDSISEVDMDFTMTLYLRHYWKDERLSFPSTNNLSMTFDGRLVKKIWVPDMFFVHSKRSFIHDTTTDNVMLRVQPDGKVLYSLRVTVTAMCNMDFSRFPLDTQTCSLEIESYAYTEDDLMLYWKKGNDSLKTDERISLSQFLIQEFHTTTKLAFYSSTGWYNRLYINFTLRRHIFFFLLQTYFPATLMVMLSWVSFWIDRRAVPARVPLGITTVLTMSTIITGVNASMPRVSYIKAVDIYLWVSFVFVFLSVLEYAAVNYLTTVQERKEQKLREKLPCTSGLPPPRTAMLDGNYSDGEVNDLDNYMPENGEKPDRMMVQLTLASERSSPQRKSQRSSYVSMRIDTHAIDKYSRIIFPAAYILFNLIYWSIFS

C[C@@H]1C(=O)O[C@H]2C[C@@]34[C@H]5C[C@@H](C(C)(C)C)[C@]36[C@@H](OC(=O)[C@@H]6O)O[C@@]4(C(=O)O5)[C@]21O [Ginkgolide A, ginkgolide A]
GABA + Ant nH [1, 6]: 1.98 ± 0.12 | GABA + Ant nH [1, 7]: 2.25 ± 0.04 | GABA + Ant nH [1, 8]: 2.60 ± 0.22 | type of antagonism [1]: mixed antagonists | fold increase in the GABA EC50 [1, 9]: 1.9 fold | fold increase in the GABA EC50 [1, 10]: 2.3 fold | fold increase in the GABA EC50 [1, 11]: 2.5 fold | Max. GABA response ([1]; with 10 μM antagonist): 94.78 ± 0.54 % | Max. GABA response ([1]; with 30 μM antagonist): 91.44 ± 0.80 % | Max. GABA response ([1]; with 100 μM antagonist): 85.66 ± 1.34 % | nH of inhibition curve ([2]; 0.5 μM GABA): −0.99 ± 0.08 | nH of inhibition curve ([2]; 1.2 μM GABA): −0.82 ± 0.07 | nH of inhibition curve ([2]; 3.0 μM GABA): −0.61 ± 0.03 | nH of inhibition curve ([2]; 10 μM GABA): −0.73 ± 0.04 | IC50 ([2]; IC50, 0.5 μM GABA): 5.74 ± 0.17 µM | IC50 ([2]; IC50, 1.2 μM GABA): 42.3 ± 5.76 µM | IC50 ([2]; IC50, 3.0 μM GABA): 182 ± 12.6 µM | IC50 ([2]; IC50, 10 μM GABA): 874 ± 108 µM | use-dependence ([3]; 5 μM ginkgolide, 1 μM GABA): not obviously use-dependent | inhibition at 5 µM ([3]; read-out: level of inhibition): 33.2 ± 1.4% | Recovery time (10–90% rise interval) ([4]; 1 μM GABA, 5 μM ginkgolide): 48.4 ± 5.7 s | inhibition at 5 µM ([4]; 1 μM GABA, 5 μM ginkgolide): 33.8 ± 3.4% | Recovery time (10–90% rise interval) ([4]; 3 μM GABA, 5 μM ginkgolide): 14.3 ± 4.6 s | inhibition at 5 µM ([4]; 3 μM GABA, 5 μM ginkgolide): 15.9 ± 1.6% | Recovery time (10–90% rise interval) ([4]; 3 μM GABA, 50 μM ginkgolide): 18.4 ± 3.4 s | inhibition at 50 µM ([4]; 3 μM GABA, 50 μM ginkgolide): 21.4 ± 1.9% | Kd ([5]; Kb0, Scheme 2, calculated): 1.3 µM | Kd ([5]; Kb0, Scheme 3, calculated): 1.5 µM | Kd ([5]; Kb0, Scheme 4, calculated): 1.3 µM | Kd ([5]; Kb3, Scheme 2, calculated): 7.7 µM | Kd ([5]; Kb3, Scheme 3, calculated): 6790 µM | Kd ([5]; Kb3, Scheme 4, printed with ±SE): 7.7 ± 1.4 µM | Kd ([5]; Kb4 (equilibrium constant of ginkgolide, open state), Scheme 2, fitted, Ka fixed 3.2 μM, E fixed 11): 19.7 ± 3.9 µM | Kd ([5]; Kb4 (equilibrium constant of ginkgolide, open state), Scheme 3, fitted, Ka fixed 3.2 μM, E fixed 11): 611 ± 89 µM | Kd ([5]; Kb4 (equilibrium constant of ginkgolide, open state), Scheme 4, fitted, Ka fixed 3.2 μM, E fixed 11): 19.7 ± 3.9 µM | E′ (opening equilibrium constant with ginkgolide bound) ([5]; Scheme 2, calculated): 4.3 | Ka′ (agonist equilibrium constant with ginkgolide bound) ([5]; Scheme 2, calculated): 5.7 µM | R (= Ka/Ka′) ([5]; Scheme 2, fitted): 0.56 ± 0.03 | S (= E/E′) ([5]; Scheme 2, fitted): 2.6 ± 0.2 | E′ (opening equilibrium constant with ginkgolide bound) ([5]; Scheme 3, calculated): 122 | Ka′ (agonist equilibrium constant with ginkgolide bound) ([5]; Scheme 3, calculated): 53.3 µM | R (= Ka/Ka′) ([5]; Scheme 3, fitted): 0.06 ± 0.05 | S (= E/E′) ([5]; Scheme 3, fitted): 0.09 ± 0.22 | Ka′ (agonist equilibrium constant with ginkgolide bound) ([5]; Scheme 4, calculated): 5.7 µM | R (= Ka/Ka′) ([5]; Scheme 4, fitted): 0.55 ± 0.03

ginkgolide B
GABA + Ant nH [1, 6]: 1.97 ± 0.10 | GABA + Ant nH [1, 7]: 1.83 ± 0.06 | GABA + Ant nH [1, 8]: 1.61 ± 0.05 | type of antagonism [1]: mixed antagonists | fold increase in the GABA EC50 [1, 9]: 3.2 fold | fold increase in the GABA EC50 [1, 10]: 4.7 fold | fold increase in the GABA EC50 [1, 11]: 7.5 fold | Max. GABA response ([1]; with 10 μM antagonist): 80.65 ± 2.18 % | Max. GABA response ([1]; with 30 μM antagonist): 75.12 ± 1.39 % | Max. GABA response ([1]; with 100 μM antagonist): 69.56 ± 2.48 % | fold more potent than ginkgolide A ([2]; 0.5 μM GABA): approximately 7.7 fold | fold more potent than ginkgolide C ([2]; 0.5 μM GABA): ~1.1 fold | nH of inhibition curve ([2]; 0.5 μM GABA): −0.87 ± 0.05 | fold more potent than ginkgolide A ([2]; 1.2 μM GABA): ~18 fold | fold more potent than ginkgolide C ([2]; 1.2 μM GABA): ~2.3 fold | nH of inhibition curve ([2]; 1.2 μM GABA): −0.97 ± 0.07 | fold more potent than ginkgolide A ([2]; 3 μM GABA): ~32 fold | fold more potent than ginkgolide C ([2]; 3 μM GABA): ~3.8 fold | nH of inhibition curve ([2]; 3.0 μM GABA): −0.78 ± 0.06 | fold more potent than ginkgolide A ([2]; 10 μM GABA): ~6.7 fold | fold more potent than ginkgolide C ([2]; 10 μM GABA): ~4 fold | nH of inhibition curve ([2]; 10 μM GABA): −0.83 ± 0.06 | bottom plateau of the inhibition curve ([2]; 10 μM GABA, five out of seven oocytes, up to 3 mM): approximately 30 % of Imax | level of inhibition ([3]; 5 μM ginkgolide, 1 μM GABA, five co-applications after 40 s preincubation): 61.3 ± 1.7% | use-dependence ([3]; 5 μM ginkgolide, 1 μM GABA): not obviously use-dependent | Inhibition (%) ([4]; 1 μM GABA, 5 μM ginkgolide): 55.5 ± 3.4% | Recovery time (10–90% rise interval) ([4]; 1 μM GABA, 5 μM ginkgolide): 42.8 ± 8.6 s | Inhibition (%) ([4]; 3 μM GABA, 5 μM ginkgolide): 35.2 ± 6.8% | Recovery time (10–90% rise interval) ([4]; 3 μM GABA, 5 μM ginkgolide): 21.3 ± 4.4 s | Inhibition (%) ([4]; 3 μM GABA, 50 μM ginkgolide): 54.6 ± 7.5% | Recovery time (10–90% rise interval) ([4]; 3 μM GABA, 50 μM ginkgolide): 29.4 ± 3.8 s | E′ (opening equilibrium constant with ginkgolide bound) ([5]; Scheme 2, calculated): 1.3 | Ka′ (agonist equilibrium constant with ginkgolide bound) ([5]; Scheme 2, calculated): 8.3 µM | R (= Ka/Ka′) ([5]; Scheme 2, fitted): 0.39 ± 0.02 | S (= E/E′) ([5]; Scheme 2, fitted): 8.6 ± 0.6 | E′ (opening equilibrium constant with ginkgolide bound) ([5]; Scheme 3, calculated): 1 × 10^−9 | Ka′ (agonist equilibrium constant with ginkgolide bound) ([5]; Scheme 3, calculated): 12.9 µM | R (= Ka/Ka′) ([5]; Scheme 3, fitted): 0.25 ± 0.01 | S (= E/E′) ([5]; Scheme 3, fitted): 1.0 × 10^10 ± 1.4 × 10^16 | Ka′ (agonist equilibrium constant with ginkgolide bound) ([5]; Scheme 4, calculated): 8.3 µM | R (= Ka/Ka′) ([5]; Scheme 4, fitted): 0.39 ± 0.02

Reference: article PMC3465557, “Mixed antagonistic effects of the ginkgolides at recombinant human ρ1 GABAC receptors” (Neuropharmacology, 2012)
